The subject of the experiment is Puccinia recondita. Briefly: Curative activity against brown rust of wheat (Puccrt K1), potted wheat seedlings cultivar Kanzler. Type of experiment: in vivo. The note with it: efficacy in % of untreated control, sprayed 1 day after inoculation, rated after 7 days, read-out: Observed activity (%). As to the method:
The active compounds were prepared separately or jointly as a stock solution with 25 mg of active compound which was made up to 10 ml using a mixture of acetone and/or DMSO and the emulsifier Uniperol® EL (wetting agent having emulsifying and dispersing action based on ethoxylated alkylphenols) in a volume ratio of solvent/emulsifier of 99 to 1. The mixture was then made up to 100 ml with water. This stock solution was diluted with the solvent/emulsifier/water mixture described to the concentration of active compounds stated below.
The visually determined percentages of infected leaf areas or the measured elongation were converted into efficacies in % of the untreated control:
The efficacy (E) is calculated as follows using Abbot's formula: […]
The expected efficacies of mixtures of active compounds were determined using Colby's formula (Colby, S. R. “Calculating synergistic and antagonistic responses of herbicide combinations”, Weeds, 15, pp. 20-22, 1967) and compared with the observed efficacies. […]
Leaves of potted wheat seedlings of the cultivar “Kanzler” were inoculated with a spore suspension of brown rust (Puccinia recondita). […] The extent of the rust fungus development on the leaves was then determined. The visually determined values for the percentage of infected leaf area were initially converted into a mean value and then converted into efficacies in % of the untreated control. […]

Each structure is given as a SMILES string.

Regarding `Fc1ccc(C2(Cn3cncn3)OC2c2ccccc2Cl)cc1` (centres unmarked) [Epoxiconazole, epoxiconazole], the inhibition at 250 µg/mL (Conc. 0.25 mg/ml) turned out to be 11%.

`CCOC(=O)C1CC(=O)C(=C(O)C2CC2)C(=O)C1` (centres unmarked) [Trinexapac-ethyl, trinexapac-ethyl]: where the note is “Conc. 0.06 mg/ml”, the inhibition at 60 µg/mL turned out to be 0%.

The record behind these values is patent US20090111691A1, “Fungicides and Bioregulatory Mixtures” (priority 2005, published 2009).
